Assay results as given in paper PMC4779111, “A Human Renal Proximal Tubule Cell Line with Stable Organic Anion Transporter 1 and 3 Expression Predictive for Antiviral-Induced Toxicity” (The AAPS Journal, 2016).
Where two headings read alike, the source gives them in different places.

Legend:
[1] = tested on: ciPTEC-OAT1; test: MTT viability assay, ciPTEC-OAT1; assay type: cell-based, human
[2] = tested on: ciPTEC-OAT3; test: MTT viability assay, ciPTEC-OAT3; assay type: cell-based, human
Protocol: Cell toxicity was analyzed further in presence of MRP and BCRP efflux inhibitors MK571 (5 μM) and KO143 (10 μM).

[3] = plasma, maximal free plasma concentration, 47 (zidovudine), cited from earlier work
[4] = biological target: T1, OAT3 (Homo sapiens, UniProt Q8TCC7); test: Inhibition of OAT-mediated fluorescein uptake in ciPTEC-OAT3
T1 sequence (Q8TCC7 1-542): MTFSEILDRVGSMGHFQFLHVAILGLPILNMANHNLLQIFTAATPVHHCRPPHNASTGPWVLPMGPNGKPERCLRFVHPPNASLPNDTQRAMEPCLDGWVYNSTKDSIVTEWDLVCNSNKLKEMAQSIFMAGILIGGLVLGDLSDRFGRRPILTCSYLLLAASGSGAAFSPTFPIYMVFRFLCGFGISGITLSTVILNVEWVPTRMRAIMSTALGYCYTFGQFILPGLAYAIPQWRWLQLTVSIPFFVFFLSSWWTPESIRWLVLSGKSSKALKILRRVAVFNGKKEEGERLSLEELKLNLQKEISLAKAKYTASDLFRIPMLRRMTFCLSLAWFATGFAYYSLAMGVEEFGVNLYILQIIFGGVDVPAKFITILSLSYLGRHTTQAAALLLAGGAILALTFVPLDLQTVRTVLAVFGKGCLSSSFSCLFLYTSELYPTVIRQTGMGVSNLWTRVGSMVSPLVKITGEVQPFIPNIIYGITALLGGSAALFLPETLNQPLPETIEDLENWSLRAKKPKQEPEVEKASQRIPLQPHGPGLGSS
Protocol: (§1) All chemicals were obtained from Sigma, unless stated otherwise. Uptake was stopped by washing three times with ice-cold HBSS (4°C).
(§2) Non-linear regression with variable slope constraining the top to 100% was used to fit the data after background subtraction with GraphPad Prism. Statistics was performed by two-way ANOVA (two-tailed, α = 0.05) using GraphPad Prism as well. All data is presented as mean ± SEM of at least three separate experiments (n = 3) performed in triplicate, unless stated otherwise.

[5] = set-up: method as in PMID 19445515; details: cited from earlier work
[6] = tested on: ciPTEC parent; test: MTT viability assay, ciPTEC parent; assay type: cell-based, human; details: 50 μM (10× Cmax) with MK571 and KO143
Protocol: Briefly, monolayers of ciPTEC (96-wells) were exposed to antivirals in serum-free medium (SFM) on day 6 of maturation.
as §2

[7] = biological target: T2, OAT1 (Homo sapiens, UniProt Q4U2R8); test: Inhibition of OAT-mediated fluorescein uptake in ciPTEC-OAT1; assay type: cell-based; set-up: host or cells: ciPTEC (human conditionally immortalized proximal tubule epithelial cells), lentiviral transduction
T2 sequence (Q4U2R8 1-563): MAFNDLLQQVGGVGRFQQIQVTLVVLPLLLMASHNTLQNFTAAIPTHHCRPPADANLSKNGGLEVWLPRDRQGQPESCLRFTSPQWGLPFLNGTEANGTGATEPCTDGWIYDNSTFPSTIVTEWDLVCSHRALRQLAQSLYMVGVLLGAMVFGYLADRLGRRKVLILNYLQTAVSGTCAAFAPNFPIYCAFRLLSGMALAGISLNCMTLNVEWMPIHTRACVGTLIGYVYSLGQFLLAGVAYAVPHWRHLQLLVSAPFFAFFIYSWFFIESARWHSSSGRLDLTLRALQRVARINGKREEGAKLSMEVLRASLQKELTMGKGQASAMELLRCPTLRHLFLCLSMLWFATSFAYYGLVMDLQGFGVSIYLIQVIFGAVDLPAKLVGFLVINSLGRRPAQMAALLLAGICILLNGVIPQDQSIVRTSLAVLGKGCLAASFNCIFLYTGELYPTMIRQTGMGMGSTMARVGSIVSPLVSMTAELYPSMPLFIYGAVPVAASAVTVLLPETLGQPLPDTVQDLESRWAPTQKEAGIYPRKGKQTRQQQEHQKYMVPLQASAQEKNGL
Protocol: as §1, §2

[8] = biological target: T1, OAT3; set-up: host or cells: ciPTEC (human conditionally immortalized proximal tubule epithelial cells), lentiviral transduction; details: substrate sitagliptin, CHO-OAT3; read-out: IC50 (literature); cited from earlier work
[9] = biological target: T1, OAT3; details: substrate estrone sulfate, Xenopus-OAT3; read-out: IC50 (literature); cited from earlier work
[10] = biological target: OCT2 (Homo sapiens, UniProt O15244); details: ASP+ 1 µM, 60 min, HBSS 37°C; similar IC50 in ciPTEC parent, ciPTEC-OAT1, ciPTEC-OAT3 (p>0.05)
Chain of OCT2 (O15244 whole entry): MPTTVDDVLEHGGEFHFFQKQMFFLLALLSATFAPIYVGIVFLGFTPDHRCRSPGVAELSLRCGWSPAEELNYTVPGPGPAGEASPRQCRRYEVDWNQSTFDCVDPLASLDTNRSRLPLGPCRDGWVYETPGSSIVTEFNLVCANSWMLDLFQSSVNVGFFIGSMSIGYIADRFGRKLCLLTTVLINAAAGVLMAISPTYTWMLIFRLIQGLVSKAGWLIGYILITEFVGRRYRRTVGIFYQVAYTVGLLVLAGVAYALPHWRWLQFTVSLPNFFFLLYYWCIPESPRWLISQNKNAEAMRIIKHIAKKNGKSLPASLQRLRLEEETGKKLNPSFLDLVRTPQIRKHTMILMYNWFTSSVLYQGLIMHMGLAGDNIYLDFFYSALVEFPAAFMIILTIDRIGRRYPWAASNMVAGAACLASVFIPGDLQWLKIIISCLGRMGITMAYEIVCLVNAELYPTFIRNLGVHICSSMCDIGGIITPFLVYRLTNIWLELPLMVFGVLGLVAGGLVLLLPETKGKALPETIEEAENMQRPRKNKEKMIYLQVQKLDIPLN
Protocol: Supplementary Figure S1. […] ASP+ uptake (1 […]
µM) by ciPTEC parent, ciPTEC-OAT1 and ciPTEC-OAT3 when co-incubated with OCT2-substrate […]
The lines represent the fit according to a one-site competition model. Values are expressed as ±SEM, (ciPTEC, n=3; ciPTEC- […]
OAT1, n=4; ciPTEC-OAT3, n=2.
(1 picture or pasted object on this page, not shown here)

| Compound | Cell viability in presence of efflux inhibitors ([1]; ciPTEC-OAT1, 50 μM (10× Cmax) with MK571 and KO143) | Cell viability (MTT), concentration and time dependence ([1]; ciPTEC-OAT1, 24, 48 and 72 h) | Cell viability in presence of efflux inhibitors ([2]; ciPTEC-OAT3, 50 μM (10× Cmax) with MK571 and KO143) | Cell viability (MTT), concentration and time dependence ([2]; ciPTEC-OAT3, 24, 48 and 72 h) | Cmax ([3]; first-listed (lower) value per drug, ref 40 (adefovir), 42 (cidofovir), 45 (tenofovir)) | Cmax ([3]; second-listed (higher) value per drug, ref 41 (adefovir), 43 (cidofovir), 46 (tenofovir)) | IC50 [4] | Fraction eliminated via the urine without metabolic alterations [5] | Cell viability in presence of efflux inhibitors [6] | IC50 [7] | IC50 [8] | IC50 [9] | IC50 at 10 min ([7]; human, ciPTEC-OAT1 cells (mature monolayers), probe fluorescein (1 μM)) | Inhibition of ASP+ uptake at OCT2 [10] |
| --- | --- | --- | --- | --- | --- | --- | --- | --- | --- | --- | --- | --- | --- | --- |
| Cc1cn([C@H]2C[C@H](N=[N+]=[N-])[C@@H](CO)O2)c(=O)[nH]c1=O [Zidovudine, zidovudine] | did not affect cell viability | did not affect cell viability | did not affect cell viability | did not affect cell viability | 5.5 µM | 6.6 µM | 21 ± 4 µM | 23% | did not affect cell viability | 14 ± 7 µM | – | – | – | – |
| CN/C(=N/CCSCc1nc[nH]c1C)NC#N [Cimetidine, cimetidine] | – | – | – | – | – | – | 215 ± 162 µM | – | – | – | 79 µM | 53 µM | 654 ± 291 µM | significant inhibition |
